The source of these data is PubChem BioAssay AID328 (DTP/NCI, 2004).

The experiment deals with BDF1 mice, P388 leukemia ip, median survival T/C. The experiment in a line: NCI In Vivo Anticancer Drug Screen. Data for tumor model P388 Leukemia (intraperitoneal) in B6D2F1 (BDF1) mice. Particulars: endpoint: median survival time, higher = longer survival. In a few lines:
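Read-out is survival of treated animals expressed relative to the vehicle group, as a T/C ratio.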

[1] abbreviates: dose: 25.0 mg/kg/injection, schedule: Q01DX009 (ip), vehicle: saline with Tween-80.
[2] abbreviates: dose: 50.0 mg/kg/injection, schedule: Q01DX009 (ip), vehicle: saline with Tween-80.
The mark [3] stands for this setting: dose: 100.0 mg/kg/injection, schedule: Q01DX009 (ip), vehicle: saline with Tween-80.
[4] abbreviates: dose: 200.0 mg/kg/injection, schedule: Q01DX009 (ip), vehicle: saline with Tween-80.
Where [5] appears, read: dose: 100.0 mg/kg/injection, schedule: Q04DX003 (ip), vehicle: Klucel (hydroxypropylcellulose) (HPC).
Where [6] appears, read: dose: 200.0 mg/kg/injection, schedule: Q04DX003 (ip), vehicle: Klucel (hydroxypropylcellulose) (HPC).
[7] abbreviates: dose: 100.0 mg/kg/injection, schedule: Q04DX003 (ip), vehicle: water.
Setting [8] is: dose: 100.0 mg/kg/injection, schedule: Q01DX009 (ip), vehicle: saline.
The mark [9] stands for this setting: dose: 200.0 mg/kg/injection, schedule: Q01DX009 (ip), vehicle: saline.
The mark [10] stands for this setting: dose: 200.0 mg/kg/injection, schedule: Q04DX003 (ip), vehicle: saline.
Setting [11] is: dose: 400.0 mg/kg/injection, schedule: Q04DX003 (ip), vehicle: saline.

Each structure is given as a SMILES string. Where “and” joins values, the source holds several entries; their conditions need not be identical. Identical values can stand only once. Toxic doses and inconclusive results are not listed.

As to `O=C(Nc1ccc(NC(=O)c2ccc(C3=NCCCN3)cc2)cc1)Nc1ccc(C2=NCCCN2)cc1`, the T/C is 113 % of control (dose: 2.5 mg/kg/injection, schedule: Q01DX009 (ip), vehicle: saline with Tween-80); 168 % of control (dose: 5.0 mg/kg/injection, schedule: Q01DX009 (ip), vehicle: saline with Tween-80); 109 % of control (dose: 5.0 mg/kg/injection, schedule: Q04DX003 (ip), vehicle: saline with Tween-80); 175 % of control (dose: 6.6 mg/kg/injection, schedule: Q01DX009 (ip), vehicle: saline with Tween-80); 233 % of control and 204 % of control (dose: 10.0 mg/kg/injection, schedule: Q01DX009 (ip), vehicle: saline with Tween-80); 109 % of control (dose: 10.0 mg/kg/injection, schedule: Q04DX003 (ip), vehicle: saline with Tween-80). In addition, for the setting “dose: 15.0 mg/kg/injection, schedule: Q01DX009 (ip), vehicle: saline with Tween-80”, the T/C was 233 % of control.

With `O=c1cc(O)ccn1CCc1cccs1`, the T/C is 109 % of control (dose: 12.5 mg/kg/injection, schedule: Q01DX009 (ip), vehicle: saline with Tween-80); 109 % of control under setting [1]; 121 % of control under setting [2]; 105 % of control under setting [3]; 114 % of control (dose: 100.0 mg/kg/injection, schedule: Q04DX003 (ip), vehicle: saline with Tween-80); 112 % of control under setting [4]. Besides, the T/C is, setting by setting: (dose: 200.0 mg/kg/injection, schedule: Q04DX003 (ip), vehicle: saline with Tween-80) 110 % of control; (dose: 400.0 mg/kg/injection, schedule: Q01DX009 (ip), vehicle: saline with Tween-80) 110 % of control; (dose: 400.0 mg/kg/injection, schedule: Q04DX003 (ip), vehicle: saline with Tween-80) 119 % of control.

For the compound `CC(C(=O)c1cccs1)C(O)(C(F)(F)F)C(F)(F)F` (stereo not given), the T/C was 91 % of control under setting [5] and 91 % of control under setting [6].

For the compound `C/C(CC(=O)O)=C(\C)C(=O)O`, the T/C (dose: 25.0 mg/kg/injection, schedule: Q01DX009 (ip), vehicle: water) is 100 % of control; the T/C (dose: 50.0 mg/kg/injection, schedule: Q01DX009 (ip), vehicle: water) is 100 % of control; the T/C (dose: 100.0 mg/kg/injection, schedule: Q01DX001 (ip), vehicle: saline) was 96 % of control; the T/C (dose: 100.0 mg/kg/injection, schedule: Q01DX009 (ip), vehicle: water) was 97 % of control and 103 % of control; the T/C under setting [7] was 108 % of control; the T/C (dose: 200.0 mg/kg/injection, schedule: Q01DX001 (ip), vehicle: saline) was 100 % of control. Further, the T/C (dose: 200.0 mg/kg/injection, schedule: Q01DX009 (ip), vehicle: water) is 112 % of control; the T/C (dose: 400.0 mg/kg/injection, schedule: Q01DX001 (ip), vehicle: saline) is 100 % of control; the T/C (dose: 400.0 mg/kg/injection, schedule: Q01DX009 (ip), vehicle: water) was 105 % of control.

For the compound `C[Si](C)(C)O/C=C1\CCCCC1=O`, the T/C under setting [1] was 110 % of control and the T/C under setting [3] is 117 % of control.

`FC(F)(F)c1nc2nc(Cl)c(Cl)nc2s1`: the T/C reads like this: (dose: 0.78 mg/kg/injection, schedule: Q04DX003 (ip), vehicle: other) 104 % of control; (dose: 1.56 mg/kg/injection, schedule: Q01DX009 (ip), vehicle: other) 99 % of control; (dose: 1.56 mg/kg/injection, schedule: Q04DX003 (ip), vehicle: other) 117 % of control; (dose: 3.12 mg/kg/injection, schedule: Q01DX009 (ip), vehicle: other) 90 % of control; (dose: 3.12 mg/kg/injection, schedule: Q04DX003 (ip), vehicle: other) 98 % of control; (dose: 6.25 mg/kg/injection, schedule: Q01DX009 (ip), vehicle: other) 90 % of control. The T/C reads like this: (dose: 6.25 mg/kg/injection, schedule: Q04DX003 (ip), vehicle: other) 121 % of control; (dose: 12.5 mg/kg/injection, schedule: Q01DX009 (ip), vehicle: other) 99 % of control; (dose: 12.5 mg/kg/injection, schedule: Q04DX003 (ip), vehicle: other) 111 % of control.

With `CCCCC1(CC)COC(C)(Cc2ccccc2)OC1` (stereo not given), the T/C under setting [8] is 100 % of control; the T/C (dose: 100.0 mg/kg/injection, schedule: Q04DX003 (ip), vehicle: saline) was 104 % of control; the T/C under setting [9] was 100 % of control; the T/C under setting [10] was 100 % of control; the T/C (dose: 400.0 mg/kg/injection, schedule: Q01DX009 (ip), vehicle: saline) is 90 % of control; the T/C under setting [11] was 104 % of control.

`COc1ccc(/C=C2\SC(=S)N(CCCN3CCOCC3)C2=O)c(OC)c1`: the T/C was 97 % of control under setting [2], 92 % of control under setting [3] and 95 % of control under setting [4].

Take `CN(C)C(=O)c1cccc(NC(=O)Oc2ccccc2)c1`: the T/C runs as follows: under setting [3], 90 % of control; under setting [4], 95 % of control.

Consider `O=C(O)C1CC[N-]CC1.O=C(O)C1CC[N-]CC1.O=C(O)C1CC[N-]CC1.O=C(O)C1CC[N-]CC1.[Br][Rh][Br]`, for which the T/C is 111 % of control (dose: 50.0 mg/kg/injection, schedule: Q01DX009 (ip), vehicle: saline); 92 % of control and 93 % of control under setting [8]; 93 % of control and 117 % of control under setting [9]; 116 % of control under setting [10]; 119 % of control under setting [11].

For the compound `C/C(=N\NC(=O)CC(=O)N/N=C(\C)c1ccccc1)c1ccccc1`, the T/C reads like this: (dose: 75.0 mg/kg/injection, schedule: Q01DX009 (ip), vehicle: saline with Tween-80) 91 % of control; (dose: 150.0 mg/kg/injection, schedule: Q01DX009 (ip), vehicle: saline with Tween-80) 99 % of control; (dose: 300.0 mg/kg/injection, schedule: Q01DX009 (ip), vehicle: saline with Tween-80) 90 % of control.

For the compound `COC(=O)C1CCCC23CC(CC12)C(C)(C)C3Br` (stereo not given), the T/C reads like this: under setting [5], 95 % of control; under setting [6], 100 % of control; (dose: 400.0 mg/kg/injection, schedule: Q04DX003 (ip), vehicle: Klucel (hydroxypropylcellulose) (HPC)) 90 % of control.

As to `C=CC[NH-].C=CC[NH-].CC(=O)CC(C)=O.CC(=O)CC(C)=O.[Ni+2]`, the T/C (dose: 6.25 mg/kg/injection, schedule: Q04DX002 (ip), vehicle: saline) was 107 % of control; the T/C (dose: 12.5 mg/kg/injection, schedule: Q04DX002 (ip), vehicle: saline) is 100 % of control; the T/C (dose: 25.0 mg/kg/injection, schedule: Q04DX002 (ip), vehicle: saline) is 117 % of control.

In the case of `CN(Cc1ccco1)NC(=O)C(=O)NCc1ccco1`, the T/C is 95 % of control (dose: 12.5 mg/kg/injection, schedule: Q01DX005 (ip), vehicle: saline with Tween-80); 95 % of control (dose: 25.0 mg/kg/injection, schedule: Q01DX005 (ip), vehicle: saline with Tween-80); 88 % of control (dose: 50.0 mg/kg/injection, schedule: Q01DX005 (ip), vehicle: saline with Tween-80).

Consider `CCOC(=O)C1(C(C)C)OC2(O)CCCCCN2C1=O` (stereo not given), for which the T/C is 95 % of control under setting [2], 109 % of control under setting [3] and 104 % of control under setting [4].

As to `COc1cccc(C(O)c2ccncc2)c1OC` (stereo not given), the T/C is, setting by setting: (dose: 25.0 mg/kg/injection, schedule: Q04DX003 (ip), vehicle: water) 113 % of control; (dose: 50.0 mg/kg/injection, schedule: Q04DX003 (ip), vehicle: water) 108 % of control; under setting [7], 103 % of control; (dose: 200.0 mg/kg/injection, schedule: Q04DX003 (ip), vehicle: water) 90 % of control; (dose: 400.0 mg/kg/injection, schedule: Q04DX003 (ip), vehicle: water) 97 % of control.

For `COc1cc2ccc(C(C)NCC#N)cc2cc1OC` (stereo not given), the T/C by setting is: (dose: 50.0 mg/kg/injection, schedule: Q01DX009 (ip), vehicle: Klucel (hydroxypropylcellulose) (HPC)) 109 % of control; (dose: 50.0 mg/kg/injection, schedule: Q04DX003 (ip), vehicle: Klucel (hydroxypropylcellulose) (HPC)) 100 % of control; (dose: 100.0 mg/kg/injection, schedule: Q01DX009 (ip), vehicle: Klucel (hydroxypropylcellulose) (HPC)) 100 % of control; under setting [5], 95 % of control; (dose: 200.0 mg/kg/injection, schedule: Q01DX009 (ip), vehicle: Klucel (hydroxypropylcellulose) (HPC)) 122 % of control; under setting [6], 95 % of control.
